Where a SMILES comes first, the peptide text is derived from it. Bridges are numbered along the chain shown (N, C = ends). Roman numbers before positions name the chains, in order. The star is where a group is joined. Butyryl = CCCC(=O)*

The test system of data set [1] is L1210 Mäuse-Leukaemiezellen. The data set can be described thus: Comparative cell growth experiment with supplemented culture medium. Type of data set: cell-based. To be noted: for Zellwachstum: comparison among the three supplements L-Glutamin, L-Alanyl-L-glutamin, N-Acetyl-L-alanyl-L-glutamin; for Wachstum im Vergleich zum glutaminfreien Medium: supplemented medium versus glutamine-free medium. An excerpt: Weiterhin wurde überraschend festgestellt, daß N-Acyldipeptide als Quelle für die C-terminalen Aminosäuren in Nährmedien für Zellkulturen dienen können.

The nature of data set [2]: Cleavage of the substrate by pig kidney homogenate (decrease of substrate followed by HPLC). Type of data set: in vitro ADME, Schwein. To be noted: for spezifische Aktivität des Nierenhomogenisats: 1 ml supernatant + 1 ml 0,1 M Tris/HCl (pH 7) + 1 ml 30 mM substrate solution, 37°C, HPLC; for schneller als N-Acetyl-L-tyrosin gespalten: in vitro, Schweinenierenhomogenisat, rate relative to N-Acetyl-L-tyrosin. As to the method:
0,1 Mol L-Alanyl-L-tyrosin wurden in 50 ml 2N Natronlauge gelöst. Bei 0°C wurden 0,11 Mol Acetanhydrid in 18 ml Tetrahydrofuran und 27,5 ml 4N Natronlauge so zugetropft, daß der pH-Wert des Reaktionsgemisches stets bei etwa 11 lag. Nach Beendigung der Zugabe wurde 1 Stunde lang nachgerührt, dann mit konzentrierter Salzsäure auf pH 1 angesäuert und das Volumen der Lösung auf die Hälfte eingeengt. Das N-Acetyl-L-alanyl-L-tyrosin kristallisierte aus, wurde abfiltriert, mit Wasser gewaschen und getrocknet. […] 1 ml des nach 30-minütiger Zentrifugation bei 10000 U/min erhaltenen Überstandes wurden mit 1 ml 0,1 M Tris/HCl (pH 7)-Puffer und 1 ml einer 30 mM Lösung des Substrates in 0,1 M Tris/HCl (pH7)-Puffer versetzt und bei 37°C inkubiert. Die zeitliche Abnahme der Substratkonzentration wurde durch HPLC verfolgt.

For data set [3] the following is noted: Ratten; Z. Ernährungswiss. 28 (1989), 32 - 35; cited from earlier work.
In data set [4] the test system is L1210 Mäuse-Leukaemiezellen. To be noted: general statement on cells, no source or experiment given; cited from earlier work.

For `C[C@H](N)C(=O)N[C@@H](CCC(N)=O)C(=O)O` [L-Alanyl-L-glutamin] (H-Ala-Gln-OH), in data set [1], the Zellwachstum entry was “kein signifikanter Unterschied” and the “Wachstum im Vergleich zum glutaminfreien Medium” value was “deutlich erhöhtes Wachstum”.

For the molecule `CC(=O)N[C@@H](C)C(=O)N[C@@H](Cc1ccc(O)cc1)C(=O)O` [N-Acetyl-L-alanyl-L-tyrosin] (Ac-Ala-Tyr-OH), in data set [2], the “spezifische Aktivität des Nierenhomogenisats” value was 420 nMol pro Minute und g Niere and the “schneller als N-Acetyl-L-tyrosin gespalten” value is recorded as 10 mal.

With `NC(=O)CC[C@H](N)C(=O)O` [L-Glutamin], in data set [1], the Zellwachstum entry is “kein signifikanter Unterschied” and the “Wachstum im Vergleich zum glutaminfreien Medium” value is on record as “deutlich erhöhtes Wachstum”.

In the case of `CC(=O)NCC(=O)N[C@@H](CSSC[C@H](NC(=O)CNC(C)=O)C(=O)O)C(=O)O` [Bis-(acetylglycyl)-L,L-cystin] (I: Ac-Gly-Cys-OH / II: Ac-Gly-Cys-OH; disulfide I:2-II:2), the “Eignung als Cysteinquelle bei der parenteralen Ernährung” value in data set [3] is recorded as “nicht als Cysteinquelle geeignet”.

As to `CC(=O)N[C@@H](CCC(N)=O)C(=O)O` [N-Acetyl-L-glutamin], in data set [4], the “von Zellen genutzt” value was “nicht oder nur sehr schlecht genutzt”.

Turning to `CC(=O)N[C@@H](C)C(=O)N[C@@H](CCC(N)=O)C(=O)O` [N-Acetyl-L-alanyl-L-glutamin] (Ac-Ala-Gln-OH), in data set [1], the Zellwachstum result was “kein signifikanter Unterschied” and the “Wachstum im Vergleich zum glutaminfreien Medium” value is “deutlich erhöhtes Wachstum”. In addition, in data set [1] (utilisation by L1210 cells as glutamine source), the “von den Zellen verwertet” value was “sehr gut verwertet”.

Regarding `CCCC(=O)N[C@@H](C)C(=O)N[C@@H](Cc1ccc(O)cc1)C(=O)O` [N-Butyryl-L-alanyl-L-tyrosin] (Butyryl-Ala-Tyr-OH), in data set [2], the “spezifische Aktivität des Nierenhomogenisats” value is 660 nMol pro Minute und g Niere and the “schneller als N-Acetyl-L-tyrosin gespalten” value was 15 mal.

The values are drawn from patent EP0466030B1, “N-acyl dipeptides and their use” (DEGUSSA AG, priority 1990, dated 1992).
